{
  "source": "patent US11912794B2",
  "about": "“Modulation of structured polypeptide specificity” (BicycleRD Limited, priority 2011, dated 2024)",
  "key": {"human plasma Kallikrein": {"molecular_target": "T1, human plasma Kallikrein (Homo sapiens, UniProt P03952)", "T1 construct": "purchased Stratech, UK", "T1 sequence (P03952 20-638)": "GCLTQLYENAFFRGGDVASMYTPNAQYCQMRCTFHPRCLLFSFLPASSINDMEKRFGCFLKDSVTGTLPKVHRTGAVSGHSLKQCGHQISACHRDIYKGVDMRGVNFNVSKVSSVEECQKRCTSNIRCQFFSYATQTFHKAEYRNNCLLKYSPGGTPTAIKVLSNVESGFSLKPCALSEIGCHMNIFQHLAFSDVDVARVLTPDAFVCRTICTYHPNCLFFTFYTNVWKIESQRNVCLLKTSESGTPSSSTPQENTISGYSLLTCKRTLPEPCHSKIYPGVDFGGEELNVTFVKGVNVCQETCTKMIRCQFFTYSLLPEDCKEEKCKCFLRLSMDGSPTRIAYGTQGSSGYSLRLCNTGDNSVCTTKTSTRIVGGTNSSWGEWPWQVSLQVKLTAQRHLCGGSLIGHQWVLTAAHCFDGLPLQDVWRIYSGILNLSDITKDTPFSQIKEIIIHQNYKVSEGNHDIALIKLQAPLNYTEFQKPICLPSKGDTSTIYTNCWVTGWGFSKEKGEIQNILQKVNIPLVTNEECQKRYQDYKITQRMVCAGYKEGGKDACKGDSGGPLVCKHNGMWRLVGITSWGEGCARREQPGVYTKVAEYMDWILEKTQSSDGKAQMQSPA", "assay": "Functional enzyme inhibition assay, fluorogenic substrate Z-PheArg-AMC", "type": "biochemical", "conditions": "for Ki: Ki (nM) (human kallikrein), Ac-06-34-18(TMB)-NH2 series"}, "rat plasma Kallikrein [1]": {"molecular_target": "T2, rat plasma Kallikrein (Rattus norvegicus, UniProt P14272)", "T2 construct": "polyhistidine tag with proTEV cleavage site (pro-peptide) (N, cleaved yes); made in house; host or cells: HEK-293 (suspension-adapted)", "T2 sequence (P14272 391-638 limits assumed)": "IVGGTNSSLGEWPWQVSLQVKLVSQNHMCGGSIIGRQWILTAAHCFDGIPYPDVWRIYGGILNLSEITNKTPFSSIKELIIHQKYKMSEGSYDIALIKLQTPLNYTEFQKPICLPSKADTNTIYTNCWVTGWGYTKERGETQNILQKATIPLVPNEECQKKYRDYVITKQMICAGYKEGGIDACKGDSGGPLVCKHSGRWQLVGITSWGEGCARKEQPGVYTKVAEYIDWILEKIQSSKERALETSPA", "assay": "Functional enzyme inhibition assay, fluorogenic substrate Z-PheArg-AMC", "type": "biochemical"}, "Human thrombin": {"molecular_target": "Human thrombin (Homo sapiens, UniProt P00734)", "conditions": "highest concentration tested (10 μM); Heinis et al. 2009; cited from earlier work"}, "Human factor XIa (hfXIa)": {"molecular_target": "Human factor XIa (hfXIa) (Homo sapiens, UniProt P03951)", "sequence (P03951 388-625 limits assumed)": "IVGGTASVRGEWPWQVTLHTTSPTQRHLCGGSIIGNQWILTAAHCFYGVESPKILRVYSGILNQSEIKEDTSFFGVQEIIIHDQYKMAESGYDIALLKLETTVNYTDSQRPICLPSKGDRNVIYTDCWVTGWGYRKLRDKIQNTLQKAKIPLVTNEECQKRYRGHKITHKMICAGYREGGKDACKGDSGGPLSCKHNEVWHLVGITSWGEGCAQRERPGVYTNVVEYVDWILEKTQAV", "sequence (P03951 19-387 partner limits assumed)": "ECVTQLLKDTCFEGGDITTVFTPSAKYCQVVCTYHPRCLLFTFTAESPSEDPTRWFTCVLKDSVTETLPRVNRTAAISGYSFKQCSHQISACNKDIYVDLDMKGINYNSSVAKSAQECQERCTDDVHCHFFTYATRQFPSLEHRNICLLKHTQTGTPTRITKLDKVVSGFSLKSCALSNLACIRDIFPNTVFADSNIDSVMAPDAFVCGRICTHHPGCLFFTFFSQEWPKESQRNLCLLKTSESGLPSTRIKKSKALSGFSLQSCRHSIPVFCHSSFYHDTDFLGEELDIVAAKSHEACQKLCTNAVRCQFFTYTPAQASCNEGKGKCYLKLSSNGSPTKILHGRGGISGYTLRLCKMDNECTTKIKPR", "conditions": "highest concentration tested (10 μM); Heinis et al. 2009; cited from earlier work"}, "[2]": {"molecular_target": "Monkey plasma Kallikrein (mPK) (Macaca mulatta, UniProt A0A1D5Q7U7)", "sequence (A0A1D5Q7U7 391-638)": "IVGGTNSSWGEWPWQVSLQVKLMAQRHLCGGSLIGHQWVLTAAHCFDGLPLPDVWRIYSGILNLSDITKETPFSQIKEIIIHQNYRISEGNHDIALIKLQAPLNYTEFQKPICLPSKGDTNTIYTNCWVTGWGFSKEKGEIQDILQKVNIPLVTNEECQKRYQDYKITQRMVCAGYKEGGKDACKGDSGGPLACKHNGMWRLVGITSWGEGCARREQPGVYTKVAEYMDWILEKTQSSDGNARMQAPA", "assay": "Target specificity, Ki for orthologous protease", "type": "biochemical"}, "rat plasma Kallikrein [3]": {"molecular_target": "T2, rat plasma Kallikrein", "conditions": "highest concentration tested (10 μM); Heinis et al. 2009; cited from earlier work"}, "[4]": {"assay": "Plasma stability method 3 (95% plasma, quantitative LC/MS, Biofocus)", "type": "in vitro ADME, rat", "conditions": "rat, plasma, 5 uM", "experimental": "To obtain plasma stability quantitatively, peptide stock solutions (1 mM in DMSO) were shipped to Biofocus, UK, who performed the analysis. Peptides were diluted to 100 uM with water, and diluted 1:20 in plasma (5 uM final concentration, with the plasma at 95%), sampled as appropriate, precipitated as above, and quantified using a Waters Xevo TQ-MS."}, "[5]": {"assay": "Plasma stability profiling method 1 (35% plasma, MALDI-TOF, qualitative)", "type": "in vitro ADME, rat", "conditions": "35% rat plasma, 37 deg C, method 1, comparative estimate", "summary_of_the_method": "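Peptide at 200 uM incubated at 37 deg C in 35% rat or human citrated plasma with 1×PBS, sampled at 0, 3, 24 h then daily up to 10 days. Parent mass tracked by MALDI-TOF at similar laser intensity; value is time until parent no longer detectable, qualitative only.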"}},
  "note": "pIC50, pKi: −log10 of the molar value. Numbered stars: 1 amine (or outer) side, 2 acyl side, 3 side chain; on linkers, the order of the positions; unused ones are H or OH. Bridge positions count the residues as written; N and C are the ends. Square brackets hold non-standard residues; d marks the D form. Peptide text beside a SMILES is read from it. Phe(4-guanidino) = N=C(N)Nc1ccc(C[C@H](N)C(=O)O)cc1; TBMB = c1c(C[*:1])cc(C[*:3])cc1C[*:2]",
  "data": [
    {"smiles": "CC(C)C[C@@H]1NC(=O)[C@H](CC(=O)O)NC(=O)[C@H](CCC(N)=O)NC(=O)[C@H](Cc2c[nH]cn2)NC(=O)[C@H](CC(C)C)NC(=O)[C@@H]2CSCc3cc(cc(c3)CSC[C@@H](C(=O)N[C@@H](C)C(N)=O)NC1=O)CSC[C@H](NC(=O)[C@H](C)N)C(=O)N[C@@H](CO)C(=O)N[C@@H](Cc1c[nH]c3ccccc13)C(=O)N1CCC[C@H]1C(=O)N[C@@H](C)C(=O)N[C@@H](CCCNC(=N)N)C(=O)N2", "note": "[Peptide 06-34-18] (H-ACSWPARCLHQDLCA-NH2; linker 2-8-14 via TBMB)", "values": [
      {"measurement": "pIC50", "setting": "human plasma Kallikrein", "result": 10.15},
      {"measurement": "pIC50", "setting": "rat plasma Kallikrein [1]", "result": 9.25}
    ]},
    {"smiles": "CC(C)C[C@@H]1NC(=O)[C@H](C)NC(=O)[C@H](CCC(=O)O)NC(=O)[C@H](CC(=O)O)NC(=O)[C@H](C)NC(=O)[C@@H]2CCCN2C(=O)[C@@H]2CSCc3cc(cc(c3)CSC[C@@H](C(=O)NCC(N)=O)NC1=O)CSC[C@H](NC(=O)[C@H](C)N)C(=O)N[C@@H](CO)C(=O)N[C@@H](CC(=O)O)C(=O)N[C@@H](CCCNC(=N)N)C(=O)N[C@@H](Cc1ccccc1)C(=O)N[C@@H](CCCNC(=N)N)C(=O)N[C@@H](CC(N)=O)C(=O)N2", "note": "[PK15] (H-ACSDRFRNCPADEALCG-NH2; linker 2-9-16 via TBMB)", "values": [
      {"measurement": "inhibition of thrombin", "setting": "Human thrombin", "result": "did not inhibit"},
      {"measurement": "pKi", "setting": "human plasma Kallikrein; Ki Human plasma kalikrein (hPK), Table 1, means of at least two measurements", "result": 8.52},
      {"measurement": "inhibition of human factor XIa (hfXIa)", "setting": "Human factor XIa (hfXIa)", "result": "did not inhibit"},
      {"measurement": "pKi", "setting": "[2]", "result": 8.40},
      {"measurement": "inhibition of rat PK", "setting": "rat plasma Kallikrein [3]", "result": "did not inhibit"}
    ]},
    {"smiles": "C[C@H](N)C(=O)N[C@H]1CSCc2cc3cc(c2)CSC[C@H](NC(=O)[C@H](CCCNC(=N)N)NC(=O)[C@H](C)NC(=O)[C@@H]2CCCN2C(=O)[C@H](Cc2c[nH]c4ccccc24)NC(=O)[C@H](CCCNC(=N)N)NC1=O)C(=O)N[C@@H]([C@@H](C)O)C(=O)N[C@@H](Cc1c[nH]cn1)C(=O)N[C@@H](CCC(N)=O)C(=O)N[C@@H](CC(N)=O)C(=O)N[C@@H](Cc1ccc(O)cc1)C(=O)N[C@H](C(=O)N[C@@H](C)C(N)=O)CSC3", "note": "[Peptide 06-54] (H-ACRWPARCTHQNYCA-NH2; linker 2-8-14 via TBMB; N-terminus and C-terminus assumed)", "values": [
      {"measurement": "pKi", "setting": "[2]", "result": 8.22}
    ]},
    {"smiles": "CC(C)[C@@H]1NC(=O)[C@H](CCCNC(=N)N)NC(=O)[C@@H]2CSCc3cc(cc(c3)CSC[C@@H](C(=O)N[C@@H](C)C(N)=O)NC(=O)[C@H](CC(N)=O)NC1=O)CSC[C@H](NC(=O)[C@H](C)N)C(=O)N[C@@H](Cc1ccccc1)C(=O)N[C@@H](CCCCN)C(=O)N[C@@H](C)C(=O)N2", "note": "[Peptide 3B3]", "values": [
      {"measurement": "pKi", "setting": "[2]", "result": 7.96}
    ]},
    {"smiles": "CSCC[C@@H]1NC(=O)[C@@H]2CSCc3cc(cc(c3)CSC[C@@H](C(=O)N[C@@H](C)C(N)=O)NC(=O)[C@H](CC(C)C)NC(=O)[C@H](CC(=O)O)NC(=O)[C@H](CCC(N)=O)NC(=O)[C@H](Cc3c[nH]cn3)NC1=O)CSC[C@H](NC(=O)[C@H](C)N)C(=O)N[C@@H](CCCNC(=N)N)C(=O)N[C@@H](Cc1c[nH]c3ccccc13)C(=O)N1CCC[C@H]1C(=O)N[C@@H](C)C(=O)N[C@@H](CCCNC(=N)N)C(=O)N2", "note": "[Peptide 06-34-04] (H-ACRWPARCMHQDLCA-NH2; linker 2-8-14 via TBMB; N-terminus and C-terminus assumed)", "values": [
      {"measurement": "pIC50", "setting": "rat plasma Kallikrein [1]", "result": 9.25}
    ]},
    {"smiles": "CC(=O)N[C@H]1CSCc2cc3cc(c2)CSC[C@H](NC(=O)[C@H](CCCNC(=N)N)NC(=O)[C@H](Cc2ccc(O)cc2)NC(=O)[C@@H]2CCCN2C(=O)[C@H](Cc2ccccc2)NC(=O)[C@H](CO)NC1=O)C(=O)N[C@@H](CC(C)C)C(=O)N[C@@H](Cc1c[nH]cn1)C(=O)N[C@@H](CCC(N)=O)C(=O)N[C@@H](CC(=O)O)C(=O)N[C@@H](CC(C)C)C(=O)N[C@H](C(N)=O)CSC3", "note": "[Ac-(06-34-18) FPYR] (Ac-CSFPYRCLHQDLC-NH2; linker 1-7-13 via TBMB)", "values": [
      {"measurement": "Ki", "setting": "human plasma Kallikrein", "result": 0.46, "unit": "nM"},
      {"measurement": "t1/2 (hrs) in rat plasma", "setting": "[4]", "result": 0.9, "unit": "h"},
      {"measurement": "Observable in rat plasma, for days", "setting": "[5]", "result": 2, "unit": "days"}
    ]},
    {"smiles": "CC(=O)N[C@H]1CSCc2cc3cc(c2)CSC[C@H](NC(=O)[C@H](Cc2ccc(NC(=N)N)cc2)NC(=O)[C@H](Cc2ccc(O)cc2)NC(=O)[C@@H]2CCCN2C(=O)[C@H](Cc2ccccc2)NC(=O)[C@H](CO)NC1=O)C(=O)N[C@@H](CC(C)C)C(=O)N[C@@H](Cc1c[nH]cn1)C(=O)N[C@@H](CCC(N)=O)C(=O)N[C@@H](CC(=O)O)C(=O)N[C@@H](CC(C)C)C(=O)N[C@H](C(N)=O)CSC3", "note": "[Ac-(06-34-18) Phe2 Tyr4 4GuanPhe5] (Ac-CSFPY[Phe(4-guanidino)]CLHQDLC-NH2; linker 1-7-13 via TBMB)", "values": [
      {"measurement": "Ki", "setting": "human plasma Kallikrein", "result": 0.4, "unit": "nM"},
      {"measurement": "t1/2 (hrs) in rat plasma", "setting": "[4]", "result": 5.0, "unit": "h"},
      {"measurement": "Observable in rat plasma, for days", "setting": "[5]", "result": ">10", "unit": "days"}
    ]}
  ]
}
